Laboratory results reported in PubChem BioAssay AID1963835 (Molecular Pharmacology Branch, DTP, NCI, 2024).

Test system: 699152-130-R-J1-PDC complex spheroid viability
Experiment: Anticancer human tumor 699152-130-R-J1-PDC patient-derived pancreatic carcinoma cell line growth inhibition [POLQ]
Conditions: for IC50: curve of first compound; for viability, T/C: stronger effect = lower value
Method: Multicellular complex tumor spheroid response to Polymerase (POL) inhibitors (novobiocin, ART-558, RP6685) in combination with a variety of drugs and investigational agents in selected tumor cell lines
The POL inhibitors (novobiocin, ART-558, and RP6685) were evaluated both individually and in combination with standard of care and investigational anticancer small molecules within a complex spheroid model of solid tumors. . Complex spheroids include a stromal component modeled by human endothelial cells (HUVEC) and fibroblasts modeled by human mesenchymal stem cells (MSCs). The concentration ranges selected for each drug and investigational agent were based upon clinically achievable concentrations if the clinical Cmax of the agent was known.
Compounds. The drugs and investigational agents: novobiocin (NSC847541), ART-558 (NSC835418), RP-6685 (NSC848927), peposertib (NSC802822), ceralasertib (NSC780249), elimusertib (NSC800525), camonsertib (NSC841442), AZD-1390 (NSC803789), olaparib (NSC753686), talazoparib (NSC767125), rucaparib (NSC756644), sotorasib (NSC818433), MRTX-1133 (NSC836407), SN-38 (NSC673596), topotecan (NSC609699), epotoside (NSC141540), doxorubicin (NSC123127), gemcitabine (NSC613327), 5-fluorouracil (NSC19893), paclitaxel (NSC125973), vemurafenib (NSC761431), MSA-2 (NSC828583), SN-011 (NSC837082), adavosertib (NSC754352), prexasertib (NSC758257), carboplatin (NSC241240) and oxaliplatin (NSC266046), were obtained from the National Cancer Institute (NCI) Developmental Therapeutics Program Chemical Repository (21). The FDA-approved anticancer drug set is available from the Developmental Therapeutics Program at https://dtp.cancer.gov/organization/dscb/obtaining/. […] The stock solutions were prepared in dimethyl sulfoxide (DMSO, Sigma-Aldrich, St. Louis, MO, cat. D2650), except for the platinum compounds which were prepared in saline (Quality Biological, Gaithersburg, MD, cat. 114-055-101), at 800-fold the tested concentration and stored at -70 degrees C prior to their use. All drugs and investigational agents were tested over a range starting from a high concentration at or near the clinical Cmax and decreasing in half-log increments. If the clinical Cmax for an agent had not been determined, the highest concentration tested was 10 microM, except for SN-38, which was tested at a high concentration of 1 microM.
Cell Culture. All cells were maintained in an incubator at 37 degrees C and 5% CO2 with 95% humidity. The PDC lines were cultured according to standard operating procedures established by the NCI PDMR (https://pdmr.cancer.gov). Table 3 of the manuscript, lists the cell lines along with the number of the three cell types plated to form the mct-spheroids and media for tumor cell growth. After thawing, all PDC lines, except 997537-175-T-J1-PDC and 415267-285-R-J2-PDC, were cultured in Matrigel-coated flasks prepared with a working solution of 1X Ham's F-12 nutrient mix, without supplementation (Thermo Fisher Scientific, cat. 11765054), 100 U/mL penicillin-streptomycin (Thermo Fisher Scientific, cat. 15140122), and 2.5% Matrigel (Corning Inc., Corning, NY, cat. 354248) for the first three passages. The two PDC lines 997537-175-T-J1-PDC and 415267-285-R-J2-PDC were cultured on uncoated flasks. The 857933-349-R-J2-PDC line was cultured in 6C/Colon 1B media containing advanced DMEM/F-12 (Thermo Fisher Scientific, cat. 12634028), 10 mM HEPES (Thermo Fisher Scientific, cat. 15630080), 1X GlutaMAX supplement (Thermo Fisher Scientific, cat. 35050061), 0.1 mg/mL primocin (InvivoGen, San Diego, CA, cat. ant-pm-2), 10% defined fetal bovine serum, heat inactivated (HyClone Laboratories Inc., Logan, UT, cat. SH30070.03HI), 50% L-WRN conditioned media (ATCC, cat. CRL-3276), 1.25 mM N-Acetyl-L-cysteine (Sigma-Aldrich, cat. A9165), 10 mM nicotinamide (Sigma-Aldrich, cat. N0636), 1X B-27 supplement (Thermo Fisher Scientific, cat. 17504044), 1X N-2 supplement (Thermo Fisher Scientific, cat. […]

[1] = second compound 0.0316 µM, first compound 0.0316 µM
[2] = second compound 0.0316 µM, first compound 0.1 µM
[3] = second compound 0.0316 µM, first compound 0.316 µM
[4] = second compound 0.0316 µM, first compound 1 µM
[5] = second compound 0.0316 µM, first compound 3.16 µM
[6] = second compound 0.0316 µM, first compound 10 µM
[7] = second compound 0.1 µM, first compound 0.0316 µM
[8] = second compound 0.1 µM, first compound 0.1 µM
[9] = second compound 0.1 µM, first compound 0.316 µM
[10] = second compound 0.1 µM, first compound 1 µM
[11] = second compound 0.1 µM, first compound 3.16 µM
[12] = second compound 0.1 µM, first compound 10 µM
[13] = second compound 0.316 µM, first compound 0.0316 µM
[14] = second compound 0.316 µM, first compound 0.1 µM
[15] = second compound 0.316 µM, first compound 0.316 µM
[16] = second compound 0.316 µM, first compound 1 µM
[17] = second compound 0.316 µM, first compound 3.16 µM
[18] = second compound 0.316 µM, first compound 10 µM
[19] = second compound 1 µM, first compound 0.0316 µM
[20] = second compound 1 µM, first compound 0.1 µM
[21] = second compound 1 µM, first compound 0.316 µM
[22] = second compound 1 µM, first compound 1 µM
[23] = second compound 1 µM, first compound 3.16 µM
[24] = second compound 1 µM, first compound 10 µM
[25] = second compound 3.16 µM, first compound 0.0316 µM
[26] = second compound 3.16 µM, first compound 0.1 µM
[27] = second compound 3.16 µM, first compound 0.316 µM
[28] = second compound 3.16 µM, first compound 1 µM
[29] = second compound 3.16 µM, first compound 3.16 µM
[30] = second compound 3.16 µM, first compound 10 µM
[31] = second compound 10 µM, first compound 0.0316 µM
[32] = second compound 10 µM, first compound 0.1 µM
[33] = second compound 10 µM, first compound 0.316 µM
[34] = second compound 10 µM, first compound 1 µM
[35] = second compound 10 µM, first compound 3.16 µM
[36] = second compound 10 µM, first compound 10 µM
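Further: spheroids exposed to agents for 7 days before viability reading.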
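Wherever viability, T/C is given: percent of DMSO vehicle control viability so 100% = vehicle and 0% = no viable signal.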

SMILES: COc1cc2cc(C(=O)CCC(=O)O)sc2cc1OC + Cc1cccc(N(C)C(=O)C2C(O)CCN2c2nc(C)cc(C(F)(F)F)c2C#N)c1
- IC50 (second compound 0.0316 µM): > 10 µM
- IC50 (second compound 0.1 µM): > 10 µM
- IC50 (second compound 0.316 µM): > 10 µM
- IC50 (second compound 1 µM): > 10 µM
- IC50 (second compound 3.16 µM): > 10 µM
- IC50 (second compound 10 µM): > 10 µM
- viability, T/C [1]: 99.4%
- viability, T/C [2]: 91.8%
- viability, T/C [3]: 92.6%
- viability, T/C [4]: 98.7%
- viability, T/C [5]: 110%
- viability, T/C [6]: 95.3%
- viability, T/C [7]: 113%
- viability, T/C [8]: 108%
- viability, T/C [9]: 106%
- viability, T/C [10]: 90.3%
- viability, T/C [11]: 121%
- viability, T/C [12]: 93.2%
- viability, T/C [13]: 93%
- viability, T/C [14]: 105%
- viability, T/C [15]: 92.5%
- viability, T/C [16]: 102%
- viability, T/C [17]: 114%
- viability, T/C [18]: 94.9%
- viability, T/C [19]: 94.8%
- viability, T/C [20]: 99.4%
- viability, T/C [21]: 92.1%
- viability, T/C [22]: 106%
- viability, T/C [23]: 107%
- viability, T/C [24]: 107%
- viability, T/C [25]: 102%
- viability, T/C [26]: 97.8%
- viability, T/C [27]: 104%
- viability, T/C [28]: 105%
- viability, T/C [29]: 89.1%
- viability, T/C [30]: 93.3%
- viability, T/C [31]: 92.2%
- viability, T/C [32]: 102%
- viability, T/C [33]: 105%
- viability, T/C [34]: 96%
- viability, T/C [35]: 98.9%
- viability, T/C [36]: 103%

SMILES: COc1ccc([C@@H](O)c2cc(-c3ncnc4cc(N5CCOCC5)ccc34)c(F)cc2Cl)nn1 + Cc1cccc(N(C)C(=O)C2C(O)CCN2c2nc(C)cc(C(F)(F)F)c2C#N)c1
- IC50 (second compound 0.0316 µM): 4.08 µM
- IC50 (second compound 0.1 µM): 3.67 µM
- IC50 (second compound 0.316 µM): 4.14 µM
- IC50 (second compound 1 µM): 3.54 µM
- IC50 (second compound 3.16 µM): 3.35 µM
- IC50 (second compound 10 µM): 4.46 µM
- viability, T/C [1]: 96.5%
- viability, T/C [2]: 94.2%
- viability, T/C [3]: 98.3%
- viability, T/C [4]: 78.9%
- viability, T/C [5]: 58.8%
- viability, T/C [6]: 22.6%
- viability, T/C [7]: 101%
- viability, T/C [8]: 106%
- viability, T/C [9]: 87.7%
- viability, T/C [10]: 85.3%
- viability, T/C [11]: 52.5%
- viability, T/C [12]: 22.9%
- viability, T/C [13]: 106%
- viability, T/C [14]: 88.9%
- viability, T/C [15]: 90.4%
- viability, T/C [16]: 84%
- viability, T/C [17]: 56.9%
- viability, T/C [18]: 22.6%
- viability, T/C [19]: 109%
- viability, T/C [20]: 95.8%
- viability, T/C [21]: 90.1%
- viability, T/C [22]: 78.9%
- viability, T/C [23]: 51.4%
- viability, T/C [24]: 21.2%
- viability, T/C [25]: 111%
- viability, T/C [26]: 94.7%
- viability, T/C [27]: 83.6%
- viability, T/C [28]: 75.2%
- viability, T/C [29]: 51%
- viability, T/C [30]: 27.4%
- viability, T/C [31]: 101%
- viability, T/C [32]: 100%
- viability, T/C [33]: 88.8%
- viability, T/C [34]: 74.1%
- viability, T/C [35]: 60.2%
- viability, T/C [36]: 30.9%

SMILES: O=C(c1cc(Cc2n[nH]c(=O)c3ccccc23)ccc1F)N1CCN(C(=O)C2CC2)CC1 + Cc1cccc(N(C)C(=O)C2C(O)CCN2c2nc(C)cc(C(F)(F)F)c2C#N)c1
- IC50 (second compound 0.0316 µM): > 10 µM
- IC50 (second compound 0.1 µM): > 10 µM
- IC50 (second compound 0.316 µM): > 10 µM
- IC50 (second compound 1 µM): > 10 µM
- IC50 (second compound 3.16 µM): > 10 µM
- IC50 (second compound 10 µM): > 10 µM
- viability, T/C [1]: 91.2%
- viability, T/C [2]: 96.4%
- viability, T/C [3]: 82.7%
- viability, T/C [4]: 96.1%
- viability, T/C [5]: 104%
- viability, T/C [6]: 69.6%
- viability, T/C [7]: 94%
- viability, T/C [8]: 104%
- viability, T/C [9]: 93.1%
- viability, T/C [10]: 94.8%
- viability, T/C [11]: 99.5%
- viability, T/C [12]: 75.5%
- viability, T/C [13]: 88.3%
- viability, T/C [14]: 97.1%
- viability, T/C [15]: 97.3%
- viability, T/C [16]: 111%
- viability, T/C [17]: 107%
- viability, T/C [18]: 81%
- viability, T/C [19]: 103%
- viability, T/C [20]: 94.8%
- viability, T/C [21]: 92.4%
- viability, T/C [22]: 102%
- viability, T/C [23]: 87.3%
- viability, T/C [24]: 75.7%
- viability, T/C [25]: 101%
- viability, T/C [26]: 104%
- viability, T/C [27]: 91.1%
- viability, T/C [28]: 97.1%
- viability, T/C [29]: 92.6%
- viability, T/C [30]: 72%
- viability, T/C [31]: 94.6%
- viability, T/C [32]: 90.6%
- viability, T/C [33]: 105%
- viability, T/C [34]: 84.9%
- viability, T/C [35]: 99.1%
- viability, T/C [36]: 78.9%
